Reference: article PMC8705783, “The Effect of Conjugation with Octaarginine, a Cell-Penetrating Peptide on Antifungal Activity of Imidazoacridinone Derivative” (International Journal of Molecular Sciences, 2021)
≈ marks a conversion by molar mass, not a printed value.

How the values were obtained:
[1] = test system: Candida albicans ATCC 10231; conditions: for IC50 HEK293/MIC90 (mycostatic selectivity index): HEK293 vs Candida albicans ATCC 10231, MIC converted to micromolar; for IC50 HEPG2/MIC90 (mycostatic selectivity index): HEPG2 vs Candida albicans ATCC 10231
HEPG2 = experiment: cells; assay type: cell-based, human; conditions: Homo sapiens; HEPG2, 72 h treatment, MTT, ± SD; read-out: IC50 (antiproliferative activity)
Method: (§1) The investigated compounds were screened for their in vitro antiproliferative activity towards a human embryonic kidney cell line (HEK-293) and human liver cancer cell line (HEPG2) using colorimetric MTT.
(§2) The human embryonic kidney cell line (HEK-293) and human liver cancer cell line (HEPG2) were purchased from ATCC (Manassas, Virginia, USA). HEK-293 was cultured in Dulbecco’s Modified Eagle Medium (Corning, NY, USA) and HEPG2 in Minimum Essential Medium Eagle (Corning, NY, USA). For each cell line, the culture medium was supplemented with 10% fetal bovine serum, 2 mM L-glutamine, and antibiotics: penicillin 62.6 µg mL^−1 and streptomycin 40 µg mL^−1. The cells were cultured at the humidified atmosphere of 5% CO2/95% air and routinely tested for Mycoplasma contamination.
(§3) Antiproliferative activity of the compounds was determined by (3-(4,5-dimethylthiazol-2-yl)-2,5-diphenyltetrazolium bromide (MTT, Sigma-Aldrich, St. Louis, MO, USA) assay, which involves the assessment of cell viability by the measurement of the cellular oxidoreductase activity. Briefly, cells were seeded into 96-well culture plates and were allowed to adhere overnight. The investigated compounds were dissolved in DMSO and added to wells (1% final concentration of DMSO) in various concentrations. After 72 h incubation, 20 µL of MTT solution in PBS (4 mg mL^−1) was added to each well, and plates were incubated for an additional 3h in standard culture conditions. After that, the medium was aspirated, and formazan crystals were dissolved in DMSO. The absorbance was determined at 570 nm with a microplate reader (Asys UVM 340 Microplate Reader, Biochrom, Cambridge, UK). All experiments were performed three times independently in triplicate.

HEK-293 = experiment: cells; assay type: cell-based, human; conditions: Homo sapiens; HEK293, 72 h treatment, MTT, ± SD; read-out: IC50 (antiproliferative activity)
Method: as §1, §2, §3

[2] = test system: Candida parapsilosis ATCC 22019; experiment: microbe, parasite or virus in culture; conditions: Lodderomyces parapsilosis, ATCC22019, 24 h, pH 7
[3] = test system: Candida glabrata ATCC 90030; conditions: for IC50 HEK293/MIC90 (mycostatic selectivity index): HEK293 vs Candida glabrata ATCC 90030; for IC50 HEPG2/MIC90 (mycostatic selectivity index): HEPG2 vs Candida glabrata ATCC 90030
Candida albicans F2 = experiment: microbe, parasite or virus in culture
[4] = test system: Candida parapsilosis ATCC 22019; conditions: for IC50 HEK293/MIC90 (mycostatic selectivity index): HEK293 vs Candida parapsilosis ATCC 22019; for IC50 HEPG2/MIC90 (mycostatic selectivity index): HEPG2 vs Candida parapsilosis ATCC 22019
Candida albicans B4 = experiment: microbe, parasite or virus in culture
Candida albicans B3 = experiment: microbe, parasite or virus in culture
Candida krusei ATCC 6258 [5] = experiment: microbe, parasite or virus in culture; conditions: Pichia kudriavzevii, ATCC6258, 24 h, pH 7
reference strains = experiment: Antifungal activity, summary over reference strains; assay type: cell-based; set-up: key to Antifungal Activity (level): (−) Means no antifungal activity; (±) low activity; (+) moderate activity; (++) high activity at the concentration mentioned; conditions: for Antifungal Activity (level): Table 3; for antifungal activity: as reported in Table 1
yeast topoisomerase II [6] = target: T1, yeast topoisomerase II (Saccharomyces cerevisiae, UniProt P06786); experiment: Yeast topoisomerase II relaxation assay; assay type: biochemical; conditions: supercoiled pBR322, tested at 1-200 μM
T1 sequence (P06786 whole entry): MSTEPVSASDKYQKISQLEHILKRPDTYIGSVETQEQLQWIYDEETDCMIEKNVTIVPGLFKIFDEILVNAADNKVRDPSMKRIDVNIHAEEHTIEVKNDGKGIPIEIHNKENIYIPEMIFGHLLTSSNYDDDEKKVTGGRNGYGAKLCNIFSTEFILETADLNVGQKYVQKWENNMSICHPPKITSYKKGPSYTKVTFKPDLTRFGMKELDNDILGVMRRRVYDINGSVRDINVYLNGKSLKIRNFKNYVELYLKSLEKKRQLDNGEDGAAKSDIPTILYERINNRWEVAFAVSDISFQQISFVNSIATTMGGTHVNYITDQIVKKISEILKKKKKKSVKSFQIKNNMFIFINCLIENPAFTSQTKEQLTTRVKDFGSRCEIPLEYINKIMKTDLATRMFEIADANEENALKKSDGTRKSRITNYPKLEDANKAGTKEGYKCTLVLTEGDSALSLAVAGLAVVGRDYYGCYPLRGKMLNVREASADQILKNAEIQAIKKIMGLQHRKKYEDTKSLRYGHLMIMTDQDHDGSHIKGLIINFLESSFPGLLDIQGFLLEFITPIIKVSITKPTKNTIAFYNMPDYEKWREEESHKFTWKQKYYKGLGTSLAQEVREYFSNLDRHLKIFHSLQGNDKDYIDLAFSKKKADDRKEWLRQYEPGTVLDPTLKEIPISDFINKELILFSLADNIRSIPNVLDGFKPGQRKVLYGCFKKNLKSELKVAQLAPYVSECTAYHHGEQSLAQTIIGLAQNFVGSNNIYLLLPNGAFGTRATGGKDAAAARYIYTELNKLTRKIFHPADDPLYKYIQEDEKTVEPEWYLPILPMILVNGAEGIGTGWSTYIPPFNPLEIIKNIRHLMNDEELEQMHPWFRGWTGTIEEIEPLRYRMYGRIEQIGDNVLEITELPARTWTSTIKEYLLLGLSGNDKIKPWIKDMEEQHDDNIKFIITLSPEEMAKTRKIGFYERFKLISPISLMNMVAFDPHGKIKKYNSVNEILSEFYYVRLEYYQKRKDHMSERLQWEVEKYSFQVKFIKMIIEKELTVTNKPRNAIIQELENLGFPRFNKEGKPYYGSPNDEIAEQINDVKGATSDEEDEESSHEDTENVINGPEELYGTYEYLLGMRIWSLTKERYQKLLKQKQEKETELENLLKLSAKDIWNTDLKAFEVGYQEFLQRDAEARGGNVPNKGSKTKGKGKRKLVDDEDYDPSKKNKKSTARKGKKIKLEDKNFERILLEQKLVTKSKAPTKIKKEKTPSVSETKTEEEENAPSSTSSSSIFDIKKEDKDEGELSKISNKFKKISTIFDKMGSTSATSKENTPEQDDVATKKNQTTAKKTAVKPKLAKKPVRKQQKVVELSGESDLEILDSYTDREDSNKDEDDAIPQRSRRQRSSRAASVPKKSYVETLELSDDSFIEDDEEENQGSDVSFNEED
Method: Due to the known activity of acridine and acridone derivatives as human topoisomerase inhibitors widely analysed for cancer chemotherapy, we decided to analyse the influence of Compound 1 as well as its R8 conjugate on the fungal equivalent of that enzyme. The relaxation of supercoiled plasmid DNA by yeast topoisomerase II (yTOPO II) was studied in the presence of different concentrations of both compounds.
The inhibition of yeast topoisomerase II was analysed according to the relaxation assay kit from Inspiralis (Inspiralis Limited, Norwich, UK). Briefly, 250 ng of supercoiled pBR322 DNA (Thermo Fisher Scientific, Waltham, MA, USA), 1 mM ATP (Inspiralis Limited, UK), and 1–200 μM of the analysed compound were mixed with reaction buffer (1 mM Tris-HCl (pH 7.9), 10 mM KCl, 0.5 mM MgCl2, 0.2 % (by volume) glycerol). The reaction was initiated by the addition of an enzyme, allowed to proceed at 30 °C for 30 min and terminated by addition of 40% (m/V) sucrose, 100 mM Tris-HCl pH 8, 10 mM EDTA, and 0.5 mg mL^−1 Bromophenol Blue. Two-step extraction with chloroform:isoamyl alcohol (24:1, by volume) and butanol water was performed and mixtures were analysed on 1% agarose gel in 1 × TAE buffer, 3h, 4.5 V cm^−1. Gel was stained in GelRed 3 × staining solution (Biotium, Fremont, CA, USA) for 30 min and photographed with Gel Doc XR+Gel Documentation System (Bio-Rad: Hercules, CA, USA).

[7] = test system: Saccharomyces cerevisiae ATCC 9763; conditions: for IC50 HEK293/MIC90 (mycostatic selectivity index): HEK293 vs Saccharomyces cerevisiae ATCC 9763; for IC50 HEPG2/MIC90 (mycostatic selectivity index): HEPG2 vs Saccharomyces cerevisiae ATCC 9763
[8] = test system: Candida albicans ATCC 10231; experiment: microbe, parasite or virus in culture
yeast topoisomerase II [9] = target: T1, yeast topoisomerase II; experiment: Formation of cleavable complexes in vitro; assay type: biochemical; conditions: 0.1-10 μM, pBR322 plasmid DNA
Method: Cleavage assay of yeast topoisomerase II was performed according to the formation of cleavable complexes kit from Inspiralis. The experimental conditions were the same as for the relaxation assay except for the amount of yeast topoisomerase II (16 times more enzyme was used). The reaction was initiated by the addition of the enzyme and allowed to proceed for 10 min at 30 °C. Then, 0.35% SDS and 0.3 mg mL^−1 proteinase K (A&A Biotechnology, Gdynia, Poland) was added, and the probes were incubated in 56 °C for 1 h. The reaction was terminated by the addition of 100 mM Tris-HCl pH 8, 10 mM EDTA, 0.5 mg mL^−1 Bromophenol Blue. Extraction with chloroform:isoamyl alcohol (24:1, by volume) was performed, and mixtures were analysed on the 1.2% agarose gel with 0.5 µg mL^−1 ethidium bromide in 1x TAE buffer, 18 h, 1.1 V cm^−1. Gel was photographed with the Gel Doc XR+Gel Documentation System.

[10] = test system: Candida glabrata ATCC 90030; experiment: microbe, parasite or virus in culture; conditions: Nakaseomyces glabratus, ATCC90030, 24 h, pH 7
Candida krusei ATCC 6258 [11] = conditions: for IC50 HEK293/MIC90 (mycostatic selectivity index): HEK293 vs Candida krusei ATCC 6258; for IC50 HEPG2/MIC90 (mycostatic selectivity index): HEPG2 vs Candida krusei ATCC 6258
Candida albicans Gu5 = experiment: microbe, parasite or virus in culture
Candida albicans F5 = experiment: microbe, parasite or virus in culture
[12] = test system: Saccharomyces cerevisiae ATCC 9763; experiment: microbe, parasite or virus in culture; conditions: ATCC9763, 24 h, pH 7
[13] = test system: C. albicans ATCC 10231 cells; experiment: Fluorescence microscopy of uptake and accumulation; conditions: 256 μg mL^−1 (8 × MFC of Compound 1-R8)
Method: Candida albicans ATCC 10231 strain were grown in the YPG medium overnight (16–18 h) at 30 °C, washed twice with sterile phosphate-buffered saline (PBS) and resuspended in RPMI 1640 at a cell density of 2 × 10^7 cells mL^−1. The inoculum (5 mL) was added to 5 mL RPMI 1640 with 256 μg mL^−1 of tested compounds. After appropriate period of time, 2 mL of cell suspension was washed three times with sterile phosphate-buffered saline (PBS). If appropriate, cells where resuspended in 1 mL of PBS and 5 μL of 2 mg mL^−1 propidium iodide (PI, Sigma-Aldrich, St. Louis, MO, USA) were added and incubated for 30 min and then rinsed three times with PBS buffer. After that, cells were resuspended in 5 μL 90% (by volume) glycerol/10% (by volume) 1 × PBS and transferred to a microscopic slide. The cells were examined with the Olympus BX-60 fluorescence microscope (λex = 330–385 nm, λem ≥ 420 nm, lens × 40) equipped with the Olympus XC50 digital camera (Olympus Corporation, Tokyo, Japan) or LSM800 T-PMT confocal microscope with a CCD camera (ZEISS, Göttingen, Germany). Images were analysed and processed with cellSens Dimension and ZEN Blue software [47].

Candida albicans Gu4 = experiment: microbe, parasite or virus in culture
yeast topoisomerase II [14] = target: T1, yeast topoisomerase II; set-up: method as in PMID 33572407; conditions: read-out: IC50 (yeast topoisomerase II relaxation); cited from earlier work
HEK-293 and HEPG2 = experiment: Antiproliferative activity, MTT, both tested cell lines; assay type: cell-based; conditions: Homo sapiens; Table 5
Method: as §1
as §2, with “The cells were cultured at the humidified atmosphere of 5% CO2/95% air and routinely tested for Mycoplasma contamination.” left out
as §3, with “After that, the medium was aspirated, and formazan crystals were dissolved in DMSO. The absorbance was determined at 570 nm with a microplate reader (Asys UVM 340 Microplate Reader, Biochrom, Cambridge, UK). All experiments were performed three times independently in triplicate.” left out

Candida albicans cells = test system: Candida albicans cells; set-up: method as in PMID 23563951; conditions: cited from earlier work
human topoisomerase II = conditions: cited from earlier work
Candida albicans = test system: Candida albicans; set-up: method as in PMID 23563951; conditions: cited from earlier work

## NCCNc1ccc2ncn3c4ccc(O)cc4c(=O)c1c23 [Compound 1, 5-((2-Aminoethyl)amino)-8-hydroxy-6H-imidazo[4,5,1-de]acridin-6-one]
[1]
  IC50 HEK293/MIC90 (mycostatic selectivity index): <0.0058
  IC50 HEPG2/MIC90 (mycostatic selectivity index): <0.0038
HEPG2
  IC50: 0.364 ± 0.013 µM
HEK-293
  IC50: 0.55 ± 0.125 µM
[2]
  MIC90: > 64 µg/mL
[3]
  IC50 HEK293/MIC90 (mycostatic selectivity index): <0.0058
  IC50 HEPG2/MIC90 (mycostatic selectivity index): <0.0038
Candida albicans F2
  MIC90: > 64 µg/mL
[4]
  IC50 HEK293/MIC90 (mycostatic selectivity index): <0.0058
  IC50 HEPG2/MIC90 (mycostatic selectivity index): <0.0038
Candida albicans B4
  MIC90: > 64 µg/mL
Candida albicans B3
  MIC90: > 64 µg/mL
Candida krusei ATCC 6258 [5]
  MIC90: > 64 µg/mL
Reference strains
  Antifungal Activity (level): −
  antifungal activity: no antifungal activity was observed
Yeast topoisomerase II [6]
  concentration that totally inhibited yeast topoisomerase II-mediated relaxation: 50 µM
[7]
  IC50 HEK293/MIC90 (mycostatic selectivity index): <0.0058
  IC50 HEPG2/MIC90 (mycostatic selectivity index): <0.0038
[8]; ATCC10231
  MIC90: > 64 µg/mL
[8]; ATCC10231, 24 h, pH 7
  MIC90: > 64 µg/mL
Yeast topoisomerase II [9]
  formation of DNA–yeast topoisomerase II cleavable complexes: stimulated the formation of DNA–yeast topoisomerase II cleavable complexes
[10]
  MIC90: > 64 µg/mL
Candida krusei ATCC 6258 [11]
  IC50 HEK293/MIC90 (mycostatic selectivity index): <0.0058
  IC50 HEPG2/MIC90 (mycostatic selectivity index): <0.0038
Candida albicans Gu5
  MIC90: > 64 µg/mL
Candida albicans F5
  MIC90: > 64 µg/mL
[12]
  MIC90: > 64 µg/mL
[13]
  uptake and accumulation in fungal cells: no significant accumulation
Candida albicans Gu4
  MIC90: > 64 µg/mL

## COc1cc(NS(C)(=O)=O)ccc1Nc1c2ccccc2nc2ccccc12 [m-AMSA]
Yeast topoisomerase II [14]
  IC50: > 200 µM

## CCN(CC)CCNc1ccc2ncn3c4ccc(O)cc4c(=O)c1c23 [Compound C-1311, 5-((2-(Diethylamino)ethyl)amino)-8-hydroxy-6H-imidazo[4,5,1-de]acridin-6-one]
HEK-293 and HEPG2
  IC50: ≤ 1 µM
[1]
  IC50 HEK293/MIC90 (mycostatic selectivity index): <0.00005
  IC50 HEPG2/MIC90 (mycostatic selectivity index): <0.00078
HEPG2
  IC50: 0.129 ± 0.037 µM
HEK-293
  IC50: 0.008 ± 0.007 µM
[2]
  MIC90: > 64 µg/mL
Candida albicans cells
  accumulation in Candida albicans cells: unable to accumulate in Candida albicans cells
[3]
  IC50 HEK293/MIC90 (mycostatic selectivity index): <0.00005
  IC50 HEPG2/MIC90 (mycostatic selectivity index): <0.00078
[4]
  IC50 HEK293/MIC90 (mycostatic selectivity index): <0.00005
  IC50 HEPG2/MIC90 (mycostatic selectivity index): <0.00078
Human topoisomerase II
  IC50 (hTOPO II inhibition): 2.5 µg/mL (≈ 7.13 µM)
Human topoisomerase II; read-out: IC50 (hTOPO II inhibition)
  IC50: 6.5 µM
Candida krusei ATCC 6258 [5]
  MIC90: > 64 µg/mL
Reference strains
  Antifungal Activity (level): −
  antifungal activity: no antifungal activity was observed
Yeast topoisomerase II [6]
  concentration that totally inhibited yeast topoisomerase II-mediated relaxation: 50 µM
[7]
  IC50 HEK293/MIC90 (mycostatic selectivity index): <0.00005
  IC50 HEPG2/MIC90 (mycostatic selectivity index): <0.00078
[8]; ATCC10231, 24 h, pH 7
  MIC90: > 64 µg/mL
Yeast topoisomerase II [9]
  formation of DNA–yeast topoisomerase II cleavable complexes: stimulated the formation of DNA–yeast topoisomerase II cleavable complexes
[10]
  MIC90: > 64 µg/mL
Candida krusei ATCC 6258 [11]
  IC50 HEK293/MIC90 (mycostatic selectivity index): <0.00005
  IC50 HEPG2/MIC90 (mycostatic selectivity index): <0.00078
Candida albicans
  antifungal activity: no antifungal activity was observed
[12]
  MIC90: > 64 µg/mL
